Drawing on US20260062443A1 (ALEXION PHARMACEUTICALS, INC., priority 2022, published 2026), this text covers IC50 for 19 compounds.

The target in this test is T1, Human complement C1s enzyme (Homo sapiens, UniProt P09871).
T1 sequence (P09871 438-688 limits assumed): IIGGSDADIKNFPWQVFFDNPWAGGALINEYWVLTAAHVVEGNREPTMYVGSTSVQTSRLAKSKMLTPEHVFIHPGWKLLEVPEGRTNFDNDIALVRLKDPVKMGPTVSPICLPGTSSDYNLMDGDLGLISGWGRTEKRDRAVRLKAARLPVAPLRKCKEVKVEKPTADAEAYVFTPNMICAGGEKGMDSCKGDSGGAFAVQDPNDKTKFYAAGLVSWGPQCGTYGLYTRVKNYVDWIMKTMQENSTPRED
T1 sequence (P09871 16-437 partner limits assumed): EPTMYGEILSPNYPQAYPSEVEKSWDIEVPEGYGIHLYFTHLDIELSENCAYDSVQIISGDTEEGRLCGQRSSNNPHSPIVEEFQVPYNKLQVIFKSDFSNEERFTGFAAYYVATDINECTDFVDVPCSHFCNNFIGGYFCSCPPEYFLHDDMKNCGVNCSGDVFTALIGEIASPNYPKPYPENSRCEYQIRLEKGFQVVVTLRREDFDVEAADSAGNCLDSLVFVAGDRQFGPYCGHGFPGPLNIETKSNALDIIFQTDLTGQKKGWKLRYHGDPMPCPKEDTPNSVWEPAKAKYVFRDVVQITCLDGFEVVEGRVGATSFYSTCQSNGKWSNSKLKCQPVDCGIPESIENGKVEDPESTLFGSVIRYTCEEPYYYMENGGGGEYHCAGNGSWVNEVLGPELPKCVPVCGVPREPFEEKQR
Nature of the test: Human C1s enzyme assay. To be noted: human complement C1s enzyme 1.16 nM, substrate Z-L-Lys-SBzl 100 μM, 5 min preincubation; read-out: IC50 (Stars), C1s Inhibiting Activity. The class given is biochemical. In short, it runs like this:
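IC50 from nonlinear regression of reaction rates versus compound concentration, with rates taken from A405 recorded at 30 s intervals over 30 min after adding 100 μM Z-L-Lys-SBzl plus 100 μM DTNB. Enzyme was human C1s purified from serum, 1.16 nM, given 5 min compound preincubation at room temperature, pH 7.5 Tris/1 M NaCl.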

Each structure is given as a SMILES string. Where only a bound is given, the exact number is not on record here.

Consider `Cc1ccc(Cc2cccc(C(=O)NCC(=O)N3C[C@H](OC(F)F)C[C@H]3C(=O)NCc3cc4cnccc4[nH]3)c2)c(F)c1` [Compound 305, (2S,4R)-N-((1H-pyrrolo[3,2-c]pyridin-2-yl)methyl)-4-(difluoromethoxy)-1-((3-(2-fluoro-4-methylbenzyl)benzoyl)glycyl)pyrrolidine-2-carboxamide], for which the IC50 was below 100 nM.

As for `C[C@@H](NC(=O)[C@@H]1C[C@@H](C2OCCCO2)CN1C(=O)CNC(=O)c1ccc2c(c1)Oc1ccccc1S2)c1cc2cnccc2[nH]1` [Compound 145, (2S,4R)-N-((R)-1-(1H-pyrrolo[3,2-c]pyridin-2-yl)ethyl)-4-(1,3-dioxan-2-yl)-1-((phenoxathiine-3-carbonyl)glycyl)pyrrolidine-2-carboxamide], the IC50 was below 100 nM.

`O=C(NCC(=O)N1CC2(C[C@H]1C(=O)NCc1cc3cncc(Cl)c3[nH]1)OCCO2)c1ccc2c(c1)Oc1ccccc1S2` [Compound 53, (S)-N-((7-chloro-1H-pyrrolo[3,2-c]pyridin-2-yl)methyl)-7-((phenoxathiine-3-carbonyl)glycyl)-1,4-dioxa-7-azaspiro[4.4]nonane-8-carboxamide]: the IC50 is above 1000 nM.

For the compound `O=C(NCC(=O)N1C[C@@](F)(CF)C[C@H]1C(=O)NCc1cc2cnccc2[nH]1)c1ccc2c(c1)-c1ccccc1C2(F)F` [Compound 6, (2S,4R)-N-((1H-pyrrolo[3,2-c]pyridin-2-yl)methyl)-1-((9,9-difluoro-9H-fluorene-3-carbonyl)glycyl)-4-fluoro-4-(fluoromethyl)pyrrolidine-2-carboxamide], the 50% inhibitory concentration (IC50) is below 100 nM.

With `O=C(NCC(=O)N1C[C@H](OC(F)F)C[C@H]1C(=O)NCc1cc2cnccc2[nH]1)c1ccc2oc3cccc(F)c3c2c1` [Compound 369, (2S,4R)-N-((1H-pyrrolo[3,2-c]pyridin-2-yl)methyl)-4-(difluoromethoxy)-1-((9-fluorodibenzo[b,d]furan-2-carbonyl)glycyl)pyrrolidine-2-carboxamide], the half-inhibitory concentration (IC50) is below 100 nM.

Regarding `O=C(NCC(=O)N1CC2(C[C@H]1C(=O)NCc1cc3cnncc3[nH]1)OCCO2)c1ccc2c(c1)Oc1ccccc1S2` [Compound 37, (S)-N-((1H-pyrrolo[2,3-d]pyridazin-2-yl)methyl)-7-((phenoxathiine-3-carbonyl)glycyl)-1,4-dioxa-7-azaspiro[4.4]nonane-8-carboxamide], the concentration for half-maximal inhibition (IC50) was below 100 nM.

Turning to `C[C@@]12C[C@@H]1N(C(=O)CNC(=O)CCCOc1ccccc1)[C@H](C(=O)NCc1ccc3c(c1)CNC3)C2` [Compound 67, (1S,3S,5S)-N-(isoindolin-5-ylmethyl)-5-methyl-2-((4-phenoxybutanoyl)glycyl)-2-azabicyclo[3.1.0]hexane-3-carboxamide], the IC50 fell in the range of 100 to 1000 nM.

As to `C[C@@H](NC(=O)[C@@H]1C[C@](F)(CF)CN1C(=O)CNC(=O)c1ccc(-c2ccccc2)cc1)c1cc2cnccc2[nH]1` [Compound 84, (2S,4R)-N-((R)-1-(1H-pyrrolo[3,2-c]pyridin-2-yl)ethyl)-1-(([1,1′-biphenyl]-4-carbonyl)glycyl)-4-fluoro-4-(fluoromethyl)pyrrolidine-2-carboxamide], the half-inhibitory concentration (IC50) was above 1000 nM.

In the case of `CC(C)c1ccc(Oc2cccc(C(=O)NCC(=O)N3C[C@H](OC(F)F)C[C@H]3C(=O)NCc3cc4cnccc4[nH]3)c2)cc1` [Compound 215, (2S,4R)-N-((1H-pyrrolo[3,2-c]pyridin-2-yl)methyl)-4-(difluoromethoxy)-1-((3-(4-isopropylphenoxy)benzoyl)glycyl)pyrrolidine-2-carboxamide], the half-maximal inhibitory concentration (IC50) is below 100 nM.

As for `C[C@@H](NC(=O)[C@@H]1C[C@]2(C)C[C@@H]2N1C(=O)CNC(=O)c1ccc(-c2ccc(F)cc2F)cc1)c1cc2cnccc2[nH]1` [Compound 147, (1S,3S,5S)-N-((R)-1-(1H-pyrrolo[3,2-c]pyridin-2-yl)ethyl)-2-((2′,4′-difluoro-[1,1′-biphenyl]-4-carbonyl)glycyl)-5-methyl-2-azabicyclo[3.1.0]hexane-3-carboxamide], the half-maximal inhibitory concentration (IC50) was 100 to 1000 nM.

Regarding `Cc1ccc(Oc2cccc(C(=O)NCC(=O)N3CC4(C[C@H]3C(=O)N[C@H](C)c3cc5cnccc5[nH]3)OCCO4)c2)c(F)c1` [Compound 321, (S)-N-((R)-1-(1H-pyrrolo[3,2-c]pyridin-2-yl)ethyl)-7-((3-(2-fluoro-4-methylphenoxy)benzoyl)glycyl)-1,4-dioxa-7-azaspiro[4.4]nonane-8-carboxamide], the half-maximal inhibitory concentration (IC50) was below 100 nM.

With `CS(=O)(=O)[C@@H]1C[C@@H](C(=O)N[C@H](CO)c2cc3cnccc3[nH]2)N(C(=O)CNC(=O)c2ccc(Oc3ccc(F)cc3)cc2)C1` [Compound 96, (2S,4R)-1-((4-(4-fluorophenoxy)benzoyl)glycyl)-N-((S)-2-hydroxy-1-(1H-pyrrolo[3,2-c]pyridin-2-yl)ethyl)-4-(methylsulfonyl) pyrrolidine-2-carboxamide], the IC50 is above 1000 nM.

Consider `COc1ccc2[nH]c(CNC(=O)[C@@H]3CC4(CN3C(=O)CNC(=O)c3ccc5c(c3)Oc3ccccc3S5)OCCO4)cc2c1` [Compound 52, (S)-N-((5-methoxy-1H-indol-2-yl)methyl)-7-((phenoxathiine-3-carbonyl)glycyl)-1,4-dioxa-7-azaspiro[4.4]nonane-8-carboxamide], for which the IC50 is above 1000 nM.

For the compound `O=C(NCC(=O)N1C[C@H](OC(F)F)C[C@H]1C(=O)NCc1ccn2ccnc2c1)c1ccc2c(c1)Oc1ccccc1S2` [Compound 237, (2S,4R)-4-(difluoromethoxy)-N-(imidazo[1,2-a]pyridin-7-ylmethyl)-1-((phenoxathiine-3-carbonyl)glycyl)pyrrolidine-2-carboxamide], the IC50 was above 1000 nM.

For the compound `C[C@@H](NC(=O)[C@@H]1CC2(CN1C(=O)CNC(=O)c1ccc3c(c1)Oc1ccccc1S3)OCCO2)c1cc2cnccc2[nH]1` [Compound 47, (S)-N-((R)-1-(1H-pyrrolo[3,2-c]pyridin-2-yl)ethyl)-7-((phenoxathiine-3-carbonyl)glycyl)-1,4-dioxa-7-azaspiro[4.4]nonane-8-carboxamide], the half-inhibitory concentration (IC50) is below 100 nM.

Regarding `O=C(NCC(=O)N1CC2(C[C@H]1C(=O)NCc1cc3ccccc3[nH]1)OCCO2)c1ccc2c(c1)-c1ccccc1C2(F)F` [Compound 3, (S)-N-((1H-indol-2-yl)methyl)-7-((9,9-difluoro-9H-fluorene-3-carbonyl)glycyl)-1,4-dioxa-7-azaspiro[4.4]nonane-8-carboxamide], the IC50 was above 1000 nM.

Consider `O=C(NCC(=O)N1C[C@H](OC(F)F)C[C@H]1C(=O)NCc1cc2cnccc2[nH]1)c1ccc(Oc2ccccc2)cn1` [Compound 137, N-(2-((2S,4R)-2-(((1H-pyrrolo[3,2-c]pyridin-2-yl)methyl)carbamoyl)-4-(difluoromethoxy)pyrrolidin-1-yl)-2-oxoethyl)-5-phenoxypicolinamide], for which the half-maximal inhibitory concentration (IC50) is below 100 nM.

Turning to `O=C(NCC(=O)N1CC2(C[C@H]1C(=O)NCc1cc3cnccc3[nH]1)OCCO2)c1ccc2c(c1)Oc1ccccc1S2` [Compound 4, (S)-N-((1H-pyrrolo[3,2-c]pyridin-2-yl)methyl)-7-((phenoxathiine-3-carbonyl)glycyl)-1,4-dioxa-7-azaspiro[4.4]nonane-8-carboxamide], the IC50 is below 100 nM.

For the compound `Cc1nc(N)ccc1CNC(=O)[C@@H]1C[C@]2(C)C[C@@H]2N1C(=O)CNC(=O)c1ccc2c(c1)Oc1ccccc1S2` [Compound 110, (1S,3S,5S)-N-((6-amino-2-methylpyridin-3-yl)methyl)-5-methyl-2-((phenoxathiine-3-carbonyl)glycyl)-2-azabicyclo[3.1.0]hexane-3-carboxamide], the IC50 is above 1000 nM.

In general, IC50 refers to the midpoint of a concentration-inhibition curve.
